Experimental data reported in patent US20230399611A1, “PRODUCTION METHOD FOR STAGE 5 NEURONS” (Ricoh Company, Ltd., priority 2022, published 2023).

Key:
[1] = system: human iPSC-derived neurons; assay: Population firing rate of iPSC-derived neurons on high-density microelectrode array (HD-MEA); assay type: cell-based; settings: added at 8 weeks after initiation of culture with increasing concentration; 1,024 electrodes per well; 10-minute recording per concentration
Protocol: Electrophysiological responses of the human iPSC-derived neurons were analyzed by using a high-density microelectrode array system (HD-MEA, MaxWell Biosystems AG).
Human iPSC-derived neurons (product name “Quick-Neuron (trademark) Excitatory-Human iPSC-derived Neurons”, ELIXIRGEN SCIENTIFIC, INC.) were cultured in the same manner as in Experimental Example 1, except that the human iPSC-derived neurons were seeded on electrodes of the high-density microelectrode array (HD-MEA) at a cell density of 100,000 cells/well, and the local electric field potential was measured over time.
4-Aminopyridine (4-AP) serving as a potassium channel inhibitor and D-2-Amino-5-phosphonopentanoic acid (D-AP5) serving ax an NMDA receptor inhibitor were added in the culture medium of iPSC-derived neurons at 8 weeks after the initiation of culture while increasing each concentration, and population firing rate histograms were recorded with 1,024 electrodes per well. One-minute stabilization and 10-minute recording were performed for each concentration. Finally, the iPSC-derived neurons were washed with three medium replacements and left for one day, and it was confirmed that the effect of each drug had disappeared.

[2] = system: Human iPSC-derived mature stage 5 neurons; assay: Localization change of drebrin by immunostaining after glutamic acid treatment; assay type: cell-based; settings: 100 μM for 10 min; immunostaining of MAP2, drebrin, nuclei
Protocol: Human iPSC-derived mature stage 5 neurons were treated with 100 μM glutamic acid for 10 minutes and then immunostained to examine the localization change of drebrin. For comparison, a sample immunostained without glutamic acid treatment was also prepared.

SMILES	response of population firing rate to the drug [1]	localization change of drebrin [2]
Nc1ccncc1 [4-AP, 4-Aminopyridine]	dose-dependent responses	–
N[C@H](CCCP(=O)(O)O)C(=O)O [D-AP5, D-2-Amino-5-phosphonopentanoic acid]	dose-dependent responses	–
N[C@@H](CCC(=O)O)C(=O)O [glutamate, glutamic acid]	–	drebrin was effluxed from clusters in spines
